In publication PMC11286609, “In vitro and in vivo analyses of eFAP: a novel FAP-targeting small molecule for radionuclide theranostics and other oncological interventions” (EJNMMI Radiopharmacy and Chemistry, 2024):

Key:
[1] = Stability in human serum at 37 °C (radio-HPLC / LC-MS); format: in vitro ADME
Procedure: (§1) For the stability assessment of eFAP-6, [^111In]In-eFAP-6 or [^177Lu]Lu-eFAP-6 (~ 3–7 MBq, 20 µL) was mixed with 180 µL of PBS (0.01 M, pH 7.4) and incubated at 37 °C for up to 24 h. A sample of the PBS solution was directly injected on the radio-HPLC at 1, 4, and 24 h after incubation. Additionally, [^111In]In-eFAP-6 and [^177Lu]Lu-eFAP-6 (5–15 MBq, 50 µL) were incubated with 350 µL of commercially acquired mouse or human serum (Biolegend; San Diego, CA, USA) at 37 °C for up to 24 h. Following 1, 4, and 24 h of incubation, 50 µL of the solution were mixed with 50 µL of acetonitrile in an Eppendorf tube, and centrifuged at 5000× g for 20 min. The supernatant was then analyzed by radio-HPLC. Stability studies of eFAP-7 were performed by incubation of eFAP-7 (50 µL, 10^− 4 M) in 450 µL PBS or serum at 37 °C for up to 24 h. After 1, 4, and 24 h of incubation, 50 µL of the PBS incubation solution were directly analyzed by liquid chromatography-mass spectrometry (LC-MS), while 50 µL of the serum solution was mixed with 50 µL of acetonitrile in an Eppendorf tube, and centrifuged at 5000× g for 20 min, followed by LC-MS analyses.

[2] = system: HT1080-huFAP and HT1080-WT tumor-bearing mice; experiment: Ex vivo biodistribution study in tumor-bearing mice; conditions: for Biodistribution Bone: femur; for Biodistribution Bone / Biodistribution Blood / Biodistribution Cecum / Biodistribution Colon / Biodistribution Heart / Biodistribution Kidneys / Biodistribution Liver / Biodistribution Lungs / Biodistribution Muscle / Biodistribution Pancreas / Biodistribution Salivary glands / Biodistribution Small intestines / Biodistribution Stomach / Biodistribution Tumor HT1080-WT / Biodistribution Tumor HT1080-huFAP: i.v., 2.6 MBq/200 pmol; for Biodistribution GI Tract: stomach, small intestines, cecum and colon combined
Text: All animal experiments were approved by the Erasmus MC Animal Welfare Committee and were in accordance with European law. Five-week-old male NMRI-Foxn1 nu/nu mice (Janvier; Le Genest-Saint-Isle, France) were housed in individually ventilated cages with a maximum of three mice per cage. After one week of acclimatization, mice were subcutaneously inoculated with HT1080-huFAP on the right shoulder and HT1080-WT on the left shoulder (2.5 × 10^6 cells in Hank’s Balanced Salt Solution (Gibco)). Tumors were allowed to grow for 10 days, resulting in tumor sizes of 537 ± 269 mm^3 and 305 ± 190 mm^3 for HT1080-huFAP and HT1080-WT, respectively, at the start of the experiment. The animals received 200 µL of [^177Lu]Lu-eFAP-6 (n=3/4 per group) or [^177Lu]Lu-FAPI-46 (n=3/4 per group) (2.6 MBq/200 pmol) by intravenous injection through the tail vein, andat 1, 4, and 24 h p.i. biodistribution studies were performed. Blood was collected by orbital puncture under isoflurane/O2 anesthesia, immediately followed by cervical dislocation. Hereafter the two tumor xenografts, pancreas, liver, GI-tract (stomach, small intestine, cecum, colon), kidneys (left and right), lungs, heart, salivary glands, muscle, and bone (femur), were collected, weighed, and measured in a y-counter (PerkinElmer), alongside 10 µL of the injected activity as standard. The results are expressed as the percentage injected dose per gram (% ID/g).
All statistical analyses were performed with GraphPad Prism version 9.0 (San Diego, California USA). All IC50 values were determined using a non-linear regression Log(inhibitor) vs. response analysis with variable slope (four parameters). For the in vivo results outliers were identified by a ROUT test (Q = 1%) and excluded. Next, a two-tailed student’s t-test was performed (*p < 0.05, **p < 0.01, ***p < 0.001). All experiments were performed in triplicate and repeated at least three times.

[3] = Stability in PBS at 37 °C (radio-HPLC / LC-MS); format: physicochemical
Procedure: as §1

[4] = Stability in mouse serum at 37 °C (radio-HPLC / LC-MS); format: in vitro ADME
Procedure: as §1

With `N#C[C@@H]1CC(F)(F)CN1C(=O)CNC(=O)c1ccnc2c(OCCCNC(=O)CN3CCN(CC(=O)[O-])CCN(CC(=O)[O-])CCN(CC(=O)[O-])CC3)cccc12.[177Lu+3]` [[^177Lu]Lu-eFAP-6] as the compound, how does the “Stability (% ± SD) Human serum 1 h” value ([1]; % intact labeled ligand, human serum, 37 °C, 1 h) read?
Its value is 99.5 ± 0.0%.

And the “Stability (% ± SD) Human serum 4 h” value ([1]; % intact labeled ligand, human serum, 37 °C, 4 h)?
The value was 99.5 ± 0.0%.

What about the “Stability (% ± SD) Human serum 24 h” value ([1]; % intact labeled ligand, human serum, 37 °C, 24 h) of the same compound?
Its value is 98.1 ± 0.3%.

And the degradation ([1]; human serum (HS), up to 24 h of incubation)?
The degradation was “less than 5%”.

And the “Biodistribution Bone” value ([2]; 1 h p.i.)?
The value was 1,80 ± 0,44 %ID/g.

What about the “Biodistribution Blood” value ([2]; 1 h p.i.) of the same compound?
The value was 0,38 ± 0,08 %ID/g.

And the “Biodistribution Cecum” value ([2]; 1 h p.i.)?
Its value is 0,36 ± 0,01 %ID/g.

What about the “Biodistribution Colon” value ([2]; 1 h p.i.) of the same compound?
Its value is 0,19 ± 0,05 %ID/g.

What about the “Biodistribution Heart” value ([2]; 1 h p.i.) of the same compound?
The value was 0,15 ± 0,04 %ID/g.

And the “Biodistribution Kidneys” value ([2]; 1 h p.i.)?
The value was 2,46 ± 0,83 %ID/g.

And the “Biodistribution Liver” value ([2]; 1 h p.i.)?
The value was 2,32 ± 0,43 %ID/g.

What about the “Biodistribution Lungs” value ([2]; 1 h p.i.) of the same compound?
The value was 0,33 ± 0,08 %ID/g.

And the “Biodistribution Muscle” value ([2]; 1 h p.i.)?
Its value is 0,19 ± 0,03 %ID/g.

And the “Biodistribution Pancreas” value ([2]; 1 h p.i.)?
Its value is 0,25 ± 0,02 %ID/g.

And the “Biodistribution Salivary glands” value ([2]; 1 h p.i.)?
The value was 0,56 ± 0,08 %ID/g.

And the “Biodistribution Small intestines” value ([2]; 1 h p.i.)?
Its value is 0,33 ± 0,34 %ID/g.

And the “Biodistribution Stomach” value ([2]; 1 h p.i.)?
The value was 0,33 ± 0,32 %ID/g.

And the “Biodistribution Tumor HT1080-WT” value ([2]; 1 h p.i.)?
The value was 0,50 ± 0,11 %ID/g.

What about the “Biodistribution Tumor HT1080-huFAP” value ([2]; 1 h p.i.) of the same compound?
The value was 6,44 ± 1,09 %ID/g.

What about the “Biodistribution Bone” value ([2]; 4 h p.i.) of the same compound?
The value was 1,27 ± 0,24 %ID/g.

What about the “Biodistribution Blood” value ([2]; 4 h p.i.) of the same compound?
The value was 0,22 ± 0,07 %ID/g.

And the “Biodistribution Cecum” value ([2]; 4 h p.i.)?
Its value is 0,32 ± 0,08 %ID/g.

And the “Biodistribution Colon” value ([2]; 4 h p.i.)?
The value was 0,14 ± 0,03 %ID/g.

What about the “Biodistribution Heart” value ([2]; 4 h p.i.) of the same compound?
The value was 0,10 ± 0,03 %ID/g.

And the “Biodistribution Kidneys” value ([2]; 4 h p.i.)?
The value was 1,11 ± 0,21 %ID/g.

What about the “Biodistribution Liver” value ([2]; 4 h p.i.) of the same compound?
The value was 2,87 ± 1,18 %ID/g.

What about the “Biodistribution Lungs” value ([2]; 4 h p.i.) of the same compound?
Its value is 0,15 ± 0,03 %ID/g.

What about the “Biodistribution Muscle” value ([2]; 4 h p.i.) of the same compound?
The value was 0,16 ± 0,06 %ID/g.

And the “Biodistribution Pancreas” value ([2]; 4 h p.i.)?
The value was 0,18 ± 0,06 %ID/g.

And the “Biodistribution Salivary glands” value ([2]; 4 h p.i.)?
The value was 0,41 ± 0,14 %ID/g.

And the “Biodistribution Small intestines” value ([2]; 4 h p.i.)?
The value was 0,12 ± 0,04 %ID/g.

And the “Biodistribution Stomach” value ([2]; 4 h p.i.)?
Its value is 0,11 ± 0,04 %ID/g.

What about the “Biodistribution Tumor HT1080-WT” value ([2]; 4 h p.i.) of the same compound?
The value was 0,36 ± 0,11 %ID/g.

And the “Biodistribution Tumor HT1080-huFAP” value ([2]; 4 h p.i.)?
The value was 5,92 ± 1,63 %ID/g.

And the “Biodistribution GI Tract” value ([2]; 4 h p.i.)?
The value was 0,17 ± 0,05 %ID/g.

What about the “Biodistribution Bone” value ([2]; 24 h p.i.) of the same compound?
Its value is 0,19 ± 0,01 %ID/g.

What about the “Biodistribution Blood” value ([2]; 24 h p.i.) of the same compound?
Its value is 0,01 ± 0,00 %ID/g.

And the “Biodistribution Cecum” value ([2]; 24 h p.i.)?
The value was 0,03 ± 0,00 %ID/g.

What about the “Biodistribution Colon” value ([2]; 24 h p.i.) of the same compound?
Its value is 0,02 ± 0,01 %ID/g.

What about the “Biodistribution Heart” value ([2]; 24 h p.i.) of the same compound?
The value was 0,01 ± 0,00 %ID/g.

And the “Biodistribution Liver” value ([2]; 24 h p.i.)?
Its value is 1,67 ± 1,07 %ID/g.

And the “Biodistribution Lungs” value ([2]; 24 h p.i.)?
The value was 0,01 ± 0,00 %ID/g.

And the “Biodistribution Muscle” value ([2]; 24 h p.i.)?
Its value is 0,01 ± 0,00 %ID/g.

What about the “Biodistribution Pancreas” value ([2]; 24 h p.i.) of the same compound?
Its value is 0,01 ± 0,00 %ID/g.

And the “Biodistribution Salivary glands” value ([2]; 24 h p.i.)?
Its value is 0,02 ± 0,00 %ID/g.

What about the “Biodistribution Small intestines” value ([2]; 24 h p.i.) of the same compound?
Its value is 0,02 ± 0,00 %ID/g.

And the “Biodistribution Stomach” value ([2]; 24 h p.i.)?
The value was 0,02 ± 0,01 %ID/g.

And the “Biodistribution Tumor HT1080-WT” value ([2]; 24 h p.i.)?
The value was 0,06 ± 0,01 %ID/g.

What about the “Biodistribution GI Tract” value ([2]; 24 h p.i.) of the same compound?
Its value is 0,02 ± 0,00 %ID/g.

What about the “Stability (% ± SD) PBS 1 h” value ([3]; % intact labeled ligand, 37 °C, 1 h) of the same compound?
Its value is 97.6 ± 1.1%.

And the “Stability (% ± SD) PBS 4 h” value ([3]; % intact labeled ligand, 37 °C, 4 h)?
Its value is 97.3 ± 0.4%.

And the “Stability (% ± SD) PBS 24 h” value ([3]; % intact labeled ligand, 37 °C, 24 h)?
The value was 94.9 ± 0.6%.

What about the degradation ([3]; up to 24 h of incubation) of the same compound?
Its degradation is “less than 5%”.

What about the “Stability (% ± SD) Mouse serum 1 h” value ([4]; % intact labeled ligand, mouse serum, 37 °C, 1 h) of the same compound?
The value was 99.3 ± 1.2%.

And the “Stability (% ± SD) Mouse serum 4 h” value ([4]; % intact labeled ligand, mouse serum, 37 °C, 4 h)?
The value was 99.5 ± 0.5%.

And the “Stability (% ± SD) Mouse serum 24 h” value ([4]; % intact labeled ligand, mouse serum, 37 °C, 24 h)?
The value was 98.1 ± 0.4%.

And the degradation ([4]; mouse serum (MS), up to 24 h of incubation)?
Its degradation is “less than 5%”.
